Experimental data: PMC3996155, “The crystal structure of fibroblast growth factor 18 (FGF18)” (Protein & Cell, 2014)

Target: T1, FGF18 (Homo sapiens, UniProt O76093)
T1 construct: residues 50-194 of the 207-residue precursor (signal peptide 1-27 absent), expressed in Escherichia coli, purified
T1 sequence (O76093 50-194): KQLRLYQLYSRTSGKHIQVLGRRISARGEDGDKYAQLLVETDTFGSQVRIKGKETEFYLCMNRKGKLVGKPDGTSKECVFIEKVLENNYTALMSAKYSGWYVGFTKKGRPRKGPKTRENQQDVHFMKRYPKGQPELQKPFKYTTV
Test: isothermal titration calorimetry
Type: binding
Conditions: size-defined heparin oligosaccharide, sulfation pattern not stated; error exceeds the value; read-out: affinity

- Kd: 2200 nM
Substance: heparin oligosaccharides of 6 dp
